Laboratory results reported in patent publication US9284345B2 (priority 2007, dated 2016).
Values joined by “and” are separate entries in the source; they are usually repeats but may differ in a detail not shown here. Equal entries are not always repeated. Where two headings read alike, the source gives them in different places.

How the values were obtained:
Human Androgen Receptor = molecular target: T1, Human Androgen Receptor (Homo sapiens, UniProt P10275); format: binding
T1 construct: expressed in transfected cells; host or cells: HEK-293 cells stably transfected with the pCMVneo-hAR plasmid (G-418 selection); cytosol used
T1 sequence (P10275 1-920): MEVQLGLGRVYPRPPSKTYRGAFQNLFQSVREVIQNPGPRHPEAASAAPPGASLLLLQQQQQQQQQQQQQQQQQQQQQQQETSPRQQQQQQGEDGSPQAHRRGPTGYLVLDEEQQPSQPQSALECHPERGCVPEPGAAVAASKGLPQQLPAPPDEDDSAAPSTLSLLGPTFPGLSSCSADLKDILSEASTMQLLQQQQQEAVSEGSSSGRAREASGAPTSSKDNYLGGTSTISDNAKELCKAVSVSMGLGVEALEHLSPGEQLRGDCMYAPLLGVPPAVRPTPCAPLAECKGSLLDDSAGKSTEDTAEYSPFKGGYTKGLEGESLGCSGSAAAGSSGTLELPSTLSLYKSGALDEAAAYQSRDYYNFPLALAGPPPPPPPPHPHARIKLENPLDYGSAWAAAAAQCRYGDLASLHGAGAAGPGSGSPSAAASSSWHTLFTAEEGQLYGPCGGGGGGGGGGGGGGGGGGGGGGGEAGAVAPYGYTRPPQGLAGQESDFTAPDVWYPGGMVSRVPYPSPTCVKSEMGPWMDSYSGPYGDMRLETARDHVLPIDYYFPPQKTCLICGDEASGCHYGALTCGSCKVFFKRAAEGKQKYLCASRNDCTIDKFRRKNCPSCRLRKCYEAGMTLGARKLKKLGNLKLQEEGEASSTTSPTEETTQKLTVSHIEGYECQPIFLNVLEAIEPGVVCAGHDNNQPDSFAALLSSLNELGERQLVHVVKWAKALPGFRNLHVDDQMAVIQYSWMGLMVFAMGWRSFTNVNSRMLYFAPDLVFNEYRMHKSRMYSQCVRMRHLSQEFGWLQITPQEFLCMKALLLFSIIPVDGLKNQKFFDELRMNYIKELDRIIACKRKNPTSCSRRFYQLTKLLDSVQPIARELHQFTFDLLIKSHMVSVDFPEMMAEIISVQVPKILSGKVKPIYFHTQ

Rat Androgen Receptor = molecular target: T2, Rat Androgen Receptor (Rattus norvegicus, UniProt P15207); test: Androgen receptor binding assay (HAP, [3H]R1881), rat prostate cytosol
T2 construct: ventral prostates collected from 24 h-gonadectomized rats were homogenized in buffer A; from tissue; host or cells: rat ventral prostate cytosol (24 h-gonadectomized rats)
T2 sequence (P15207 1-902): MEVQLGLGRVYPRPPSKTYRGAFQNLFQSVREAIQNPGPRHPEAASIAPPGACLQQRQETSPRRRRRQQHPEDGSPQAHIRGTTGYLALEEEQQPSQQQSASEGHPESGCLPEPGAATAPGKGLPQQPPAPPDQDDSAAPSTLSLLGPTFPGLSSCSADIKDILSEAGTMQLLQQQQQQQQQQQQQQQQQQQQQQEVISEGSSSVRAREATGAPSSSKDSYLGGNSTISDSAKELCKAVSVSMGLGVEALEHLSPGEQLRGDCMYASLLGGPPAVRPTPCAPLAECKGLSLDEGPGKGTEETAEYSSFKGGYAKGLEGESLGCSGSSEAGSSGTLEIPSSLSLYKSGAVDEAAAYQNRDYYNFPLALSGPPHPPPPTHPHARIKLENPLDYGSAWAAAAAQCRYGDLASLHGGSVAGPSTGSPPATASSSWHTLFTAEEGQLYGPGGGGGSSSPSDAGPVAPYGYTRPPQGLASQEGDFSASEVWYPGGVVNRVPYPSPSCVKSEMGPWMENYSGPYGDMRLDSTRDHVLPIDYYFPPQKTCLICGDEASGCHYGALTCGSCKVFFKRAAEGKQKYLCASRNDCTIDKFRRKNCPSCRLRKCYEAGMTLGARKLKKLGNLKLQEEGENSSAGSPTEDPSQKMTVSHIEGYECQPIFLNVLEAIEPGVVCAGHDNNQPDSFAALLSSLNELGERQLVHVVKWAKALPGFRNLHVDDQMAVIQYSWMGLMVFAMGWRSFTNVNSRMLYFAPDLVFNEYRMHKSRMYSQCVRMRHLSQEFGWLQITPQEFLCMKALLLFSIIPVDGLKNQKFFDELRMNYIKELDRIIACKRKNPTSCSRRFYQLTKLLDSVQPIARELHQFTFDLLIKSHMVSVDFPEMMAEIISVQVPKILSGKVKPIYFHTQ
Protocol: On the morning of the binding assay, ventral prostates collected from 24 h-gonadectomized rats were homogenized in buffer A (1 g of tissue in 5 mL) and the homogenate was centrifuged as described above.
Androgen binding is measured using the hydroxylapatite (HAP) assay. In brief, the radioactive steroid [^3H]R1881 solubilized in ethanol is diluted with buffer B (10 mM Tris-HCl, 1.5 mM EDTA disodium salt, 10 mM α-monothioglycerol, pH 7.4). Aliquots of the cell or prostate cytosol preparation (0.1 ml) are then incubated with 5 nM [^3H]R1881 (0.1 ml, ˜100 000 cpm) in the presence or absence of the indicated concentrations of unlabeled compounds (0.1 ml, prepared in buffer B containing 30% ethanol) for 16-18 h at 0-4° C. Triamcinolone acetonide (TAC; 100 nM) is added to mask progesterone receptors. Unbound steroids are separated by incubation for 40 min at 0-4° C. with 0.3 ml HAP prepared in buffer P (50 mM Tris-HCl, 10 mM KH2PO4, pH 7.4). After incubation with HAP and 10 min of centrifugation at 1000×g, the pellet is washed 3 times with 1 ml of buffer P. Thereafter, the radioactivity is extracted from the pellet by incubation at room temperature for 60 min with 1 ml of ethanol. After centrifugation, the supernatant is decanted into a scintillation vial and the pellet is extracted again with ethanol. After the addition of scintillation liquid, the radioactivity is measured in a liquid scintillation counter.

[1] = in vivo
[2] = system: Shionogi mouse mammary carcinoma cells; test: cells; format: cell-based; conditions: for Ki: read-out: Shionogi cells Antiandrogenic activity Ki
Immature Rat CX + DHT = test: animal or person; format: in vivo; conditions: for change in vivo at 0.1 mg / change in vivo at 0.5 mg: Rattus norvegicus, 168 h
Intact Rat = test: In vivo activity in intact rat (organ and muscle weight); conditions: rat, in vivo
androgen receptor = test: Antiandrogen / SARM / androgen profile observed on structural change; conditions: structure-activity observation in estratriene derivatives
Source text: Preferred positions on the steroid to this change in activities are 3, 4, 11β, 16 and 17α. […] Moreover, when we changed the 4-fluoro by a 4-chloro on EM-6583, we obtained a pure androgen (EM-5697). Similarly, when we increased the size of the chain at 17α-position on (1,4-phenylene as a spacer group), EM-8419 became a SARM. Again, when we changed the 4-fluoro by a 4-chloro on EM-8419, we obtained a pure androgen (EM-5313).
We also believed that a larger size increase could reverse the observed tendency (androgen to SARM or antiandrogen). Thus, it is not obvious to make good predictions of the biological activity of this compound family but some trends are observable.

[3] = system: CX+ 4-DIONE in Mature Rat; test: Systemic antiandrogenic activity in mature male rats; format: in vivo
in vivo = conditions: male, Sprague-Dawley, rat, plasma, po, 0.5 mg
[4] = po, read-out: In Vivo Antagonist % Change vs DHT (CX = −100%) SV
[5] = po, read-out: In Vivo Antagonist % Change vs DHT (CX = −100%) VP

SMILES: CC12CCC3c4ccc(C#N)c(Cl)c4CCC3C1CCCC2(O)Cc1cc[n+]([O-])cc1 (stereo not drawn) [EM-5945]
- Human Androgen Receptor Binding RBA (%) R1881 = 100% (Human Androgen Receptor): 2.8 ± 0.4%
- Rat Androgen Receptor Binding RBA (%) R1881 = 100% (Rat Androgen Receptor): 0.3%
- Prostate Conc, 7 h (Rat) ([1]; po): 1539 ng/g
- Shionogi cells Antiandrogenic activity Ki OH-Flu/Ki compound [2]: 13
- Ki [2]: 0.9 nM

SMILES: CC12CCC3c4ccc(C#N)c(F)c4CCC3C1CCC2(O)Cc1ccc(-c2ccc[n+]([O-])c2)cc1 (stereo not drawn) [EM-8419]
- Human Androgen Receptor Binding RBA (%) R1881 = 100% (Human Androgen Receptor): 83 ± 35%
- In Vivo Anti-A Rat CX + DHT % change vs DHT (CX CONT = −100%) Bulbo (Immature Rat CX + DHT; rat, in vivo, po): +36 ± 11%
- In Vivo Anti-A Rat CX + DHT % change vs DHT (CX CONT = −100%) SV (Immature Rat CX + DHT; rat, in vivo, po): −33 ± 7%
- In Vivo Anti-A Rat CX + DHT % change vs DHT (CX CONT = −100%) VP (Immature Rat CX + DHT; rat, in vivo, po): −36 ± 0%
- In Vivo Agonist Rat CX % change vs CX (DHT CONT = +100%) Bulbo (Immature Rat CX): +115 ± 4%
- In Vivo Agonist Rat CX % change vs CX (DHT CONT = +100%) SV (Immature Rat CX): +26 ± 2%
- In Vivo Agonist Rat CX % change vs CX (DHT CONT = +100%) VP (Immature Rat CX): +39 ± 6%
- In Vivo Intact Rat % change vs Intact CONT (Intact CONT = +100%; CX CONT = 0%) Bulbo (Intact Rat): +238 ± 12%
- In Vivo Intact Rat % change vs Intact CONT (Intact CONT = +100%; CX CONT = 0%) SZ (Intact Rat): +76 ± 2%
- In Vivo Intact Rat % change vs Intact CONT (Intact CONT = +100%; CX CONT = 0%) VP (Intact Rat): +89 ± 5%
- activity profile (antiandrogen, SARM or androgen) (androgen receptor): became a SARM
- AUC 24 h 0.5 mg/rat oral [1]: 5725 ± 595 ng·h/mL
- % of stim of basal at 10^−7M (% over basal) [2]: +94 ± 17%
- % of stim of basal at 10^−7 M (DHT = 100%) [2]: +62 ± 11%
- % of inh of DHT at 10^−7 M (Basal = 100%) ([2]; 0.0003 µM): +21 ± 11%

SMILES: C[C@]12CCC3c4ccc(C#N)c(F)c4CCC3C1CC[C@@]2(O)Cc1cc[n+]([O-])cc1 (stereo partly drawn) [EM-5854]
- Human Androgen Receptor Binding RBA (%) R1881 = 100% (Human Androgen Receptor): 0.63 ± 0.08%
- change in vivo at 0.1 mg (Immature Rat CX + DHT; [4]): -86 ± 2%
- change in vivo at 0.5 mg (Immature Rat CX + DHT; [4]): -85%
- change in vivo at 0.1 mg (Immature Rat CX + DHT; [5]): -46 ± 2%
- change in vivo at 0.5 mg (Immature Rat CX + DHT; [5]): -76%
- inhibition of DHT-stimulated seminal vesicle weight (Immature Rat CX + DHT; rat, in vivo): 85%
- inhibition of DHT-stimulated ventral prostate weight (Immature Rat CX + DHT; rat, in vivo): 76%
- potency on rat androgen-sensitive parameters relative to currently available antiandrogens (Immature Rat CX + DHT; rat, in vivo): approximately 5 times
- % change vs 4-DIONE Cont (CX Cont = −100% inh) Seminal Vesicles ([3]; 0.2 mg/rat/per os/ID): −69 ± 7%
- % change vs 4-DIONE Cont (CX Cont = −100% inh) Ventral Prostate ([3]; 0.2 mg/rat/per os/ID): −34 ± 7%
- % change vs 4-DIONE Cont (CX Cont = −100% inh) Seminal Vesicles ([3]; 1 mg/rat/per os/ID): −109 ± 5%
- % change vs 4-DIONE Cont (CX Cont = −100% inh) Ventral Prostate ([3]; 1 mg/rat/per os/ID): −67 ± 2%
- reversal of the stimulatory effect of 4-dione on ventral prostate weight ([3]; daily oral dose of 1 mg/rat): 67%
- 4-dione-induced stimulation of seminal vesicle weight ([3]; orchidectomized mature rats with 4-dione implants): completely reversed
- Rat Androgen Receptor Binding RBA (%) R1881 = 100% (Rat Androgen Receptor): 0.4 ± 0.1%
- activity profile (antiandrogen, SARM or androgen) (androgen receptor): pure antiandrogen
- AUC (in vivo): 2930 ± 233 ng·h/mL
- Shionogi cells Antiandrogenic activity Ki OH-Flu/Ki compound [2]: 5.5 and 5.5 ± 1.2
- Ki [2]: 2.5 ± 0.4 nM
